Key:
Barnyardgrass = experiment: Herbicidal activity test, foliage treatment; type: in vivo, Echinochloa crus-galli; set-up: key: 0: situations in which the condition of sprouting or vegetation at the time of examination of the plant utilized for the test was compared with and showed totally or substantially no difference with that of the untreated application; 10: situations in which the plant completely withered or the sprouting or vegetation was completely suppressed; conditions: sprayed onto the foliage of plants cultivated 10 days, investigated after 16 days in a greenhouse
Experimental: (§1) Soil was packed into a round plastic pot having a diameter of 10 cm and depth of 10 cm. Barnyardgrass, Blackgrass, Ivyleaf morningglory were seeded and cultivated in a greenhouse for 10 days. Five (5) parts of the test compound, 6 parts of sorpol3005X (Toho Chemical Company) and 89 parts of xylene were well mixed to produce an emulsion. A certain amount thereof was diluted with water containing 0.1% (v/v) of a sticking agent at a proportion of 1000 L for 1 hectare and was spread uniformly with a spray-gun onto the all sides of the foliage from above the plant cultivated in the above pot. After cultivating the plants for 16 days in a greenhouse, the herbicidal activity of the test compound was investigated.
(§2) In the above Tables 3 and 4, the strength of the herbicidal activity is shown stepwise as 0, 1, 2, 3, 4, 5, 6, 7, 8, 9, and 10.

Blackgrass = experiment: Herbicidal activity test, foliage treatment; type: in vivo, Alopercurus myosuroides; set-up: key: 0: situations in which the condition of sprouting or vegetation at the time of examination of the plant utilized for the test was compared with and showed totally or substantially no difference with that of the untreated application; 10: situations in which the plant completely withered or the sprouting or vegetation was completely suppressed; conditions: sprayed onto the foliage of plants cultivated 10 days, investigated after 16 days in a greenhouse
Experimental: as §1, §2

[1] = tested on: present invention protein (A11); experiment: Detection of the ability to convert compound (II) to compound (III), E. coli pKSN849AF extract; type: in vitro ADME, Streptomyces nogalator IFO13445; conditions: 3 ppm of compound (II) labeled with 14C, components A, B, 10 minutes at 30° C.
Experimental: Reaction solutions of 30 μl were prepared and maintained for 1 hour at 30° C. The reaction solutions consisted of a 0.1M potassium phosphate buffer (pH7.0) containing 3 ppm of compound (II) labeled with ^14C, 2 mM of β-NADPH (hereinafter, referred to as “component A”) (Oriental Yeast Company), 0.2 mg/ml of a ferredoxin derived from spinach (hereinafter referred to as “component B”) (Sigma Company), 1 U/ml of ferredoxin reductase (hereinafter, referred to as “component C”) (Sigma Company) and 18 μl of the supernatant fraction recovered in Example 4(2). Further, there were prepared and maintained similarly reaction solutions having no addition of at least one component utilized in the composition of the above reaction solution, selected from component A, component B and component C. […] Next, the imaging plate was analyzed on Image Analyzer BAS2000 (Fuji Film Company). […]
(§3) Reaction solutions of 30 μl were prepared and maintained for 10 minutes at 30° C. […] Similarly to Example 4(3), the reaction solutions after the maintenance were extracted with ethyl acetate and the extracted layers were TLC analyzed. […] A spot corresponding to compound (III) was detected from the reaction solution containing E. coli pKSN849AF extract. In contrast, such a spot was not detected from the reaction solution containing E. coli pKSN2 extract.

[2] = tested on: present invention protein (A19); experiment: Detection of the ability to convert compound (II) to compound (III), E. coli pKSN1502F extract; type: in vitro ADME, Streptomyces griseus IFO 13849T; conditions: 3 ppm of compound (II) labeled with 14C, components A, B, 10 minutes at 30° C.
Experimental: (§4) Reaction solutions of 30 μl were prepared and maintained for 10 minutes at 30° C. The reaction solutions consisted of a 0.1M potassium phosphate buffer (pH7.0) containing 3 ppm of compound (II) labeled with ^14C, 2 mM of β-NADPH (hereinafter, referred to as “component A”) (Oriental Yeast Company), 2 mg/ml of a ferredoxin derived from spinach (hereinafter referred to as “component B”) (Sigma Company), 0.1 U/ml of ferredoxin reductase (hereinafter, referred to as “component C”) (Sigma Company) and 23 μl of the supernatant fraction recovered in Example 32(2). Similarly to Example 4(3), the reaction solutions after the maintenance were extracted with ethyl acetate and the extracted layers were TLC analyzed. […] A spot corresponding to compound (III) was detected from the reaction solution containing E. coli pKSN849AF extract. In contrast, such a spot was not detected from the reaction solution containing E. coli pKSN2 extract.
as §3, with “Similarly to Example 32(3), reaction” for “Reaction”, “The” for “Similarly to Example 4(3), the”, “pKSN1502F” for “pKSN849AF”

[3] = tested on: present invention protein (A23); experiment: Detection of the ability to convert compound (II) to compound (III), E. coli pKSN1584F extract; type: in vitro ADME, Streptomyces roseorubens IFO 13682T; conditions: 3 ppm of compound (II) labeled with 14C, components A, B, 10 minutes at 30° C.
Experimental: as §4
as §3, with “Similarly to Example 32(3), reaction” for “Reaction”, “The” for “Similarly to Example 4(3), the”, “pKSN1584F” for “pKSN849AF”

[4] = tested on: present invention protein (A24); experiment: Detection of the ability to convert compound (II) to compound (III), E. coli pKSN1589BF extract; type: in vitro ADME, Streptomyces rutgersensis IFO 15875T; conditions: 3 ppm of compound (II) labeled with 14C, components A, B, 10 minutes at 30° C.
Experimental: as §4
as §3, with “Similarly to Example 32(3), reaction” for “Reaction”, “The” for “Similarly to Example 4(3), the”, “pKSN1589BF” for “pKSN849AF”

C[C@@H](Oc1cc(-n2c(=O)cc(C(F)(F)F)n(C)c2=O)c(F)cc1Cl)C(=O)O [compound (II)]
Herbicidal Activity Barnyardgrass (Barnyardgrass; 125 g/ha): 10
Herbicidal Activity Barnyardgrass (Barnyardgrass; 500 g/ha): 10
Herbicidal Activity Blackgrass (Blackgrass; 125 g/ha): 10
Herbicidal Activity Blackgrass (Blackgrass; 500 g/ha): 10
spot corresponding to compound (III) labeled with 14C (TLC) [1]: detected
spot corresponding to compound (III) labeled with 14C (TLC) [2]: detected
spot corresponding to compound (III) labeled with 14C (TLC) [3]: detected
spot corresponding to compound (III) labeled with 14C (TLC) [4]: detected

From patent US8293979B2, “Weed controller metabolism proteins, genes, thereof and use of the same” (Sumitomo Chemical Company, Limited, priority 2001, dated 2012)
